From patent publication US8106029B2, “Use of A2A adenosine receptor agonists” (Gilead Sciences, Inc., priority 2004, dated 2012)
In brackets after ≈: the same amount, converted by molar mass. Like-named read-outs stand apart in the source and are kept apart here.

Assays:
[1] = tested on: A2A-adenosine receptors; details: average of the 12 assays
[2] = tested on: human platelets; assay: Cell calcium mobilization, human platelets; assay type: cell-based; details: Platelet, mean ± SE, read-out: Cell calcium Mobilization, potency
[3] = Example 2: PD model of average coronary peak flow velocity (APV), intracoronary Doppler flow wire; assay type: in vivo, human
Description: (§1) The purpose of this study was to investigate the pharmacokinetics (PK) and pharmacodynamics (PD) of regadenoson in subjects undergoing clinically indicated cardiac catheterization.
(§2) Thirty-six male and female subjects undergoing clinically indicated coronary angiography were studied. […] ECG, average coronary peak flow velocity (APV), measured using intracoronary Doppler flow wire, blood pressure (BP), and heart rate (HR) were continuously monitored for up to 3 hours post-dose. Occurrence of adverse events (AEs) was monitored for approximately 3 hours post dosing and via telephone approximately 14 days later. A population approach was utilized in applying PK and PD models to the plasma concentration, APV, and HR data. The potential influence of various covariates on PK and PD model parameters was investigated.

[4] = target: T1, A2A-adenosine receptors (Rattus norvegicus, UniProt P30543); assay: Membrane binding, displacement of [3H]-CG-S21680, rat brain striatal membranes; details: Rat striatum, mean ± SE, read-out: Membrane Binding, affinity [Ki]
T1 construct: rat brain striatal membranes; from tissue; host or cells: rat brain striatum membranes
T1 sequence (P30543 whole entry): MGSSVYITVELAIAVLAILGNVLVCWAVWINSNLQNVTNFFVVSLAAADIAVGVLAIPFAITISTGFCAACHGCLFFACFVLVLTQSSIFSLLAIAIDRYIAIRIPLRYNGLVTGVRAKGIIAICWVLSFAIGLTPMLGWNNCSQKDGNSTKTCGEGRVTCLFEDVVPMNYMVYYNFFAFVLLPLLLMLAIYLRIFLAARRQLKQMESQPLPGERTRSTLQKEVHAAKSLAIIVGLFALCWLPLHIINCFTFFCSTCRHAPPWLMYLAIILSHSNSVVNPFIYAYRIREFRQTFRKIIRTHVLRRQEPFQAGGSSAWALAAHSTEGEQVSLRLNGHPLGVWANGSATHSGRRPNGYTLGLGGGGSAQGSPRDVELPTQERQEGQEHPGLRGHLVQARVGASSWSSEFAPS

[5] = Solubility in water; assay type: physicochemical
Description: Therefore, regadenoson can be dissolved and administered in water so long as the desired weight amount of regadenoson can be administered in an acceptable volume. For example, a preferred dose of about 400 micrograms can be administered in 8 mL of water.

[6] = Example 2: PD model (Michaelis-Menten) of heart rate; assay type: in vivo, human; details: catheterization subjects
Description: as §1, §2

[7] = Example 1: PD model (Michaelis-Menten) of heart rate time-course in healthy male subjects; assay type: in vivo, human
Description: (§3) The purpose of this study was to investigate the pharmacokinetics (PK), pharmacodynamics (PD), and the maximum tolerated dose of regadenoson in healthy human subjects.
(§4) Thirty-six healthy, male subjects were included in the study. […] ECG, blood pressure (BP), and heart rate (HR) were recorded for up to 24 hours post-dose. Adverse events (AE) were monitored for 24 hours post dose and via telephone 7 days later. A population approach was utilized in applying a three-compartmental PK model to the plasma concentration-time and a Michaelis-Menten model to the time-course of heart rate. The potential influence of various covariates on PK and PD model parameters was investigated.

[8] = Example 2: population PK in subjects undergoing cardiac catheterization; assay type: in vivo; details: both sexes, human, plasma
Description: as §1, §2

[9] = target: T1, A2A-adenosine receptors; assay: Membrane binding, displacement of [3H]-ZM241385, rat brain striatal membranes; details: Rat striatum, mean ± SE, read-out: Membrane Binding, affinity [Ki]
[10] = Example 1: population PK after single IV bolus in healthy male subjects; assay type: in vivo; details: human
Description: as §3, §4

[11] = tested on: human platelets; assay: Platelet aggregation; assay type: cell-based; details: mean ± SE, read-out: Platelet Aggregation, potency
[12] = tested on: human neutrophils; assay: Superoxide anion production, human neutrophils; assay type: cell-based; details: Neutrophil, mean ± SE, read-out: Superoxide anion Production, potency
[13] = Example 1: tolerability / maximum tolerated dose in healthy male subjects; assay type: in vivo, human; details: for MTD at 24 h: male, human, in vivo, intravenous
Description: as §3, §4

**Q.** With `CCNC(=O)[C@H]1O[C@@H](n2cnc3c(N)nc(NCCc4ccc(CCC(=O)O)cc4)nc32)[C@H](O)[C@@H]1O` [CGS 21680] as the compound, how does the “values of EC50 lower than for regadenoson, on average” value [1] read?
**A.** 13 fold

**Q.** For `CNC(=O)c1cnn(-c2nc(N)c3ncn([C@@H]4O[C@H](CO)[C@@H](O)[C@H]4O)c3n2)c1` [regadenoson, (1-{9-[(4S,2R,3R,5R)-3,4-dihydroxy-5-(hydroxymethyl)oxolan-2-yl]-6-aminopurin-2-yl}pyrazol-4-yl)-N-methylcarboxamide], which IC50 [2] is on record?
**A.** 108 ± 8 nM

**Q.** And the “distribution rate constant from the plasma to the effect site” value ([3]; APV PD model)?
**A.** 4 min⁻¹

**Q.** What about the EC50 ([3]; Homo sapiens, catheterization subjects, read-out: potency (concentration that causes half maximal effect) on APV) of the same compound?
**A.** 0.0299 µg/mL (≈ 0.0766 µM)

**Q.** And the “maximal increase in APV” value ([3]; model estimate, effect compartment)?
**A.** 105 cm/s

**Q.** What about the Ki [4] of the same compound?
**A.** 43 ± 3 nM

**Q.** What about the solubility [5] of the same compound?
**A.** ~50 µg/mL (≈ 128 µM)

**Q.** And the EC50 ([6]; Homo sapiens, read-out: potency on HR)?
**A.** 0.0275 µg/mL (≈ 0.0704 µM)

**Q.** And the “maximum increase in the HR” value ([6]; model estimate)?
**A.** 41 bpm

**Q.** And the EC50 ([7]; Homo sapiens, read-out: concentration causing half-maximal increase in HR (potency))?
**A.** 0.0124 µg/mL (≈ 0.0318 µM)

**Q.** And the “maximal increase in HR” value ([7]; healthy male subjects, model estimate)?
**A.** 76 bpm

**Q.** What about the Vd ([8]; IV bolus, read-out: volume of distribution) of the same compound?
**A.** 68.1 L

**Q.** And the clearance ([8]; single IV bolus 10 to 500 μg, three-compartment model)?
**A.** 498 mL/min

**Q.** And the Ki [9]?
**A.** 318 ± 5 nM

**Q.** And the Vd ([10]; plasma, healthy male subjects, IV bolus, read-out: volume of distribution)?
**A.** 83.3 L

**Q.** And the clearance ([10]; plasma, healthy male subjects, single IV bolus 0.1 to 30 μg/kg, three-compartmental model, read-out: population value of clearance (CL) (converted))?
**A.** 677 mL/min

**Q.** What about the “renal clearance as share of the total clearance” value ([10]; male, in vivo, iv) of the same compound?
**A.** 57%

**Q.** And the IC50 [11]?
**A.** 437 ± 44 nM

**Q.** And the IC50 [12]?
**A.** 328 ± 32 nM

**Q.** What about the “adverse events, severity” value ([13]; healthy male subjects, IV bolus 0.1 to 30 μg/kg) of the same compound?
**A.** mild to moderate

**Q.** What about the MTD at 24 h ([13]; standing, dose-limiting syncope or near syncope, read-out: maximum tolerated dose, standing position) of the same compound?
**A.** 0.01 mg/kg

**Q.** And the MTD at 24 h ([13]; supine, read-out: maximum tolerated dose, supine position)?
**A.** 0.02 mg/kg

**Q.** What about the “dose generally well tolerated, standing patients” value ([13]; standing) of the same compound?
**A.** up to 10 μg/kg

**Q.** What about the “dose generally well tolerated, supine patients” value ([13]; supine) of the same compound?
**A.** up to 20 μg/kg
